Experiments:
Alternaria solani = Alternaria solani / tomato / leaf disc (early blight); format: in vivo; settings: foliar, tomato leaf disks cv. Baby, inoculated 2 days after application, assessed 5-7 days after application, read-out: control of Alternaria solani (percent disease control compared to untreated)
Experimental: Example B1: Alternaria solani/Tomato/Leaf Disc (Early Blight) Tomato leaf disks cv. Baby are placed on agar in multiwell plates (24-well format) and sprayed with the formulated test compound diluted in water. The leaf disks are inoculated with a spore suspension of the fungus 2 days after application. The inoculated leaf disks are incubated at 23° C./21° C. […] […]-185.

[1] = tested on: Botryotinia fuckeliana (Botrytis cinerea); test: Botryotinia fuckeliana (Botrytis cinerea) / liquid culture (gray mould); format: cell-based; settings: Vogels broth, 24° C., 3-4 days after application, read-out: control of Botryotinia fuckeliana (inhibition of growth, photometric)
How it was run: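 Botrytis cinerea conidia in Vogels broth were added to compound supplied as DMSO solution. Plates were incubated at 24 °C, and growth inhibition was read photometrically 3-4 days after application.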

[2] = tested on: Glomerella lagenarium (Colletotrichum lagenarium); test: Glomerella lagenarium (Colletotrichum lagenarium) / liquid culture (anthracnose); format: cell-based; settings: Colletotrichum orbiculare, PDB potato dextrose broth, 24° C., 3-4 days after application, read-out: control of Glomerella lagenarium (inhibition of growth, photometric)
How it was run: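 Conidia from cryogenic storage suspended in potato dextrose broth and added to DMSO compound solution in plates. Incubated at 24° C; growth inhibition read photometrically 3-4 days after application.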

[3] = tested on: Blumeria graminis f. sp. tritici (Erysiphe graminis f. sp. tritici); test: Blumeria graminis f. sp. tritici / wheat / leaf disc preventative (powdery mildew on wheat); format: in vivo; settings: foliar, wheat leaf segments cv. Kanzler, inoculated 1 day after application, assessed 6-8 days after application, read-out: control of Blumeria graminis f. sp. tritici (percent disease control compared to untreated)
Text: Example B4: Blumeria graminis f. sp. tritici (Erysiphe graminis f. sp. tritici)/Wheat/Leaf Disc Preventative (Powdery Mildew on Wheat) Wheat leaf segments cv. Kanzler are placed on agar in a multiwell plate (24-well format) and sprayed with the formulated test compound diluted in water. The leaf disks are inoculated by shaking powdery mildew infected plants above the test plates 1 day after application. […] […]-192.

Fusarium culmorum = test: microbe, parasite or virus in culture; format: cell-based; settings: read-out: control of Fusarium culmorum (inhibition of growth, photometric)
[4] = tested on: Phaeosphaeria nodorum (Septoria nodorum); test: Phaeosphaeria nodorum (Septoria nodorum) / wheat / leaf disc preventative (glume blotch); format: in vivo; settings: Parastagonospora nodorum, foliar, wheat leaf segments cv. Kanzler, inoculated 2 days after application, assessed 5-7 days after application, read-out: control of Phaeosphaeria nodorum (percent disease control compared to untreated)
How it was run: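 Wheat cv. Kanzler leaf discs on agar were sprayed with formulated compound diluted in water and inoculated with spores 2 days later. Discs were kept at 20° C, 75% rh, 12 h light/dark; percent disease control versus untreated was scored 5-7 days after application.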

[5] = tested on: Monographella nivalis (Microdochium nivale); test: Monographella nivalis (Microdochium nivale) / liquid culture (foot rot cereals); format: cell-based; settings: PDB potato dextrose broth, 24° C., 4-5 days after application, read-out: control of Monographella nivalis (inhibition of growth, photometric)
How it was run: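 Cryostored M. nivalis conidia mixed into potato dextrose broth and added to 96-well plates holding test compound in DMSO. Incubated at 24° C; growth inhibition read photometrically 4-5 days after application.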

[6] = tested on: Mycosphaerella arachidis (Cercospora arachidicola); test: Mycosphaerella arachidis (Cercospora arachidicola) / liquid culture (early leaf spot); format: cell-based; settings: PDB potato dextrose broth, 24° C., 4-5 days after application, read-out: control of Mycosphaerella arachidis (inhibition of growth, photometric)
How it was run: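 Conidia from cryogenic storage suspended in potato dextrose broth and added to compound in DMSO. Incubation at 24° C; growth inhibition read photometrically 4-5 days after application.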

[7] = tested on: Puccinia recondita f. sp. tritici; test: Puccinia recondita f. sp. tritici / wheat / leaf disc preventative (brown rust); format: in vivo; settings: foliar, wheat leaf segments cv. Kanzler, inoculated 1 day after application, assessed 7-9 days after application, read-out: control of Puccinia recondita f. sp. tritici, preventative (percent disease control compared to untreated)
How it was run: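 Wheat leaf segments (cv. Kanzler) on agar were sprayed with formulated compound, then inoculated with spores 1 day later. Segments were incubated at 19 °C, 75% rh with 12 h light/dark. Percent disease control versus untreated was scored 7–9 days after application.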

Pyrenophora teres = Pyrenophora teres / barley / leaf disc preventative (net blotch); format: in vivo; settings: foliar, barley leaf segments cv. Hasso, inoculated 2 days after application, assessed 5-7 days after application, read-out: control of Pyrenophora teres (disease control compared to untreated)
How it was run: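 Barley cv. Hasso leaf discs on agar were sprayed with diluted formulated compound, then inoculated with spore suspension 2 days later. Incubation at 20 °C, 65% rh, 12 h light/dark; disease control versus untreated assessed 5-7 days after application.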

[8] = tested on: Mycosphaerella graminicola (Septoria tritici); test: Mycosphaerella graminicola (Septoria tritici) / liquid culture (Septoria blotch); format: cell-based; settings: Zymoseptoria tritici, PDB potato dextrose broth, 24° C., 4-5 days after application, read-out: control of Mycosphaerella graminicola (inhibition of growth, photometric)
How it was run: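 Conidia from cryogenic storage were mixed into potato dextrose broth and added to test compound in DMSO. Plates were incubated at 24° C, and growth inhibition was read photometrically 4-5 days after application.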

[9] = tested on: Puccinia recondita f. sp. tritici; test: Puccinia recondita f. sp. tritici / wheat / leaf disc curative (brown rust); format: in vivo; settings: foliar, wheat leaf segments cv. Kanzler, compound applied 1 day after inoculation, assessed 6-8 days after application, read-out: control of Puccinia recondita f. sp. tritici, curative (percent disease control compared to untreated)
Experimental: Example B10: Puccinia recondita f. sp. tritici/Wheat/Leaf Disc Curative (Brown Rust) Wheat leaf segments cv. Kanzler are placed on agar in multiwell plates (24-well format). The leaf segments are inoculated with a spore suspension of the fungus. Plates are stored in darkness at 19° C. and 75% rh. The formulated test compound diluted in water is applied 1 day after inoculation. […] […]-185.

[10] = tested on: Magnaporthe grisea (Pyricularia oryzae); test: whole plant or invertebrate; format: in vivo; settings: foliar, read-out: control of Magnaporthe grisea (percent disease control compared to untreated)
Sclerotinia sclerotiorum = Sclerotinia sclerotiorum / liquid culture (cottony rot); format: cell-based; settings: PDB potato dextrose broth, mycelia fragments, 24° C., 3-4 days after application, read-out: control of Sclerotinia sclerotiorum (inhibition of growth, photometric)
How it was run: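 Mycelial fragments of a fresh liquid culture in potato dextrose broth were added to compound dispensed from DMSO solution. Plates were incubated at 24° C. Growth inhibition was measured photometrically 3–4 days after application.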

COc1ccc(Nc2cc(F)cc(F)c2)nc1C(=O)NC1(C(C)C)CCC1 [Compound P-179, 6-(3,5-difluoroanilino)-N-(1-isopropylcyclobutyl)-3-methoxy-pyridine-2-carboxamide]
≥ 80%: pest or weed control at 200 ppm (Alternaria solani) | inhibition at 20 ppm [1] | inhibition at 20 ppm [2] | pest or weed control at 200 ppm [3] | inhibition at 20 ppm (Fusarium culmorum) | pest or weed control at 200 ppm [4] | inhibition at 20 ppm [5] | inhibition at 20 ppm [6] | pest or weed control at 200 ppm [7] | pest or weed control at 200 ppm (Pyrenophora teres) | inhibition at 20 ppm [8]

COc1ccc(Nc2cc(F)cc(F)c2)nc1C(=O)NC(C)C(C)C (stereo not drawn) [Compound P-168, 6-(3,5-difluoroanilino)-N-(1,2-dimethylpropyl)-3-methoxy-pyridine-2-carboxamide]
≥ 80%: inhibition at 20 ppm [1] | inhibition at 20 ppm [2] | pest or weed control at 200 ppm [3] | inhibition at 20 ppm (Fusarium culmorum) | inhibition at 20 ppm [5] | inhibition at 20 ppm [6] | pest or weed control at 200 ppm [7] | pest or weed control at 200 ppm (Pyrenophora teres) | inhibition at 20 ppm [8]

COc1ccc(Nc2cc(F)cc(F)c2)nc1C(=O)NC1(C2CCC2)CCC1 [Compound P-176, N-(1-cyclobutylcyclobutyl)-6-(3,5-difluoroanilino)-3-methoxy-pyridine-2-carboxamide]
≥ 80%: pest or weed control at 200 ppm (Alternaria solani) | inhibition at 20 ppm [1] | inhibition at 20 ppm [2] | pest or weed control at 200 ppm [3] | inhibition at 20 ppm (Fusarium culmorum) | pest or weed control at 200 ppm [4] | inhibition at 20 ppm [5] | inhibition at 20 ppm [6] | pest or weed control at 200 ppm [7] | pest or weed control at 200 ppm (Pyrenophora teres) | inhibition at 20 ppm [8]

CCC1(NC(=O)c2nc(Nc3cc(F)cc(F)c3)ccc2OC)CCC1 [Compound P-178, 6-(3,5-difluoroanilino)-N-(1-ethylcyclobutyl)-3-methoxy-pyridine-2-carboxamide]
≥ 80%: pest or weed control at 200 ppm (Alternaria solani) | inhibition at 20 ppm [1] | inhibition at 20 ppm [2] | pest or weed control at 200 ppm [3] | inhibition at 20 ppm (Fusarium culmorum) | pest or weed control at 200 ppm [4] | inhibition at 20 ppm [5] | inhibition at 20 ppm [6] | pest or weed control at 200 ppm [9] | pest or weed control at 200 ppm [7] | pest or weed control at 200 ppm (Pyrenophora teres) | inhibition at 20 ppm [8]

COc1ccc(Nc2cc(F)cc(F)c2)nc1C(=O)NC1(C)CCCCC1 [Compound P-108, 6-(3,5-difluoroanilino)-3-methoxy-N-(1-methylcyclohexyl)pyridine-2-carboxamide]
≥ 80%: inhibition at 20 ppm [2] | pest or weed control at 200 ppm [3] | inhibition at 20 ppm (Fusarium culmorum) | inhibition at 20 ppm [5] | inhibition at 20 ppm [6] | pest or weed control at 200 ppm [7] | pest or weed control at 200 ppm [10] | pest or weed control at 200 ppm (Pyrenophora teres) | inhibition at 20 ppm (Sclerotinia sclerotiorum) | inhibition at 20 ppm [8]

COc1ccc(Nc2cc(F)c(F)c(F)c2)nc1C(=O)NC(C)(C)C [Compound P-162, N-tert-butyl-3-methoxy-6-(3,4,5-trifluoroanilino)pyridine-2-carboxamide]
≥ 80%: pest or weed control at 200 ppm (Alternaria solani) | inhibition at 20 ppm [1] | inhibition at 20 ppm [2] | pest or weed control at 200 ppm [3] | inhibition at 20 ppm [5] | inhibition at 20 ppm [6] | pest or weed control at 200 ppm [9] | pest or weed control at 200 ppm [7] | pest or weed control at 200 ppm [10] | pest or weed control at 200 ppm (Pyrenophora teres) | inhibition at 20 ppm (Sclerotinia sclerotiorum) | inhibition at 20 ppm [8]

COc1ccc(Nc2cc(F)cc(F)c2)nc1C(=O)NC1CCC1(C)C (stereo not drawn) [Compound P-7, 6-(3,5-difluoroanilino)-N-(2,2-dimethylcyclobutyl)-3-methoxy-pyridine-2-carboxamide]
≥ 80%: pest or weed control at 200 ppm (Alternaria solani) | inhibition at 20 ppm [1] | inhibition at 20 ppm [2] | pest or weed control at 200 ppm [3] | inhibition at 20 ppm (Fusarium culmorum) | pest or weed control at 200 ppm [4] | inhibition at 20 ppm [5] | inhibition at 20 ppm [6] | pest or weed control at 200 ppm [7] | pest or weed control at 200 ppm [10] | pest or weed control at 200 ppm (Pyrenophora teres) | inhibition at 20 ppm [8]

COc1ccc(Nc2cccc(F)c2)nc1C(=O)NC(C)(C)C [Compound P-160, N-tert-butyl-6-(3-fluoroanilino)-3-methoxy-pyridine-2-carboxamide]
≥ 80%: pest or weed control at 200 ppm (Alternaria solani) | inhibition at 20 ppm [1] | inhibition at 20 ppm [2] | pest or weed control at 200 ppm [3] | pest or weed control at 200 ppm [4] | inhibition at 20 ppm [5] | inhibition at 20 ppm [6] | pest or weed control at 200 ppm [9] | pest or weed control at 200 ppm [7] | pest or weed control at 200 ppm [10] | pest or weed control at 200 ppm (Pyrenophora teres) | inhibition at 20 ppm (Sclerotinia sclerotiorum) | inhibition at 20 ppm [8]
